Assay [1] concerns the target T1, 3-hydroxy-3-methylglutaryl-coenzyme A reductase (Rattus norvegicus, UniProt P51639).
T1 sequence (P51639 whole entry): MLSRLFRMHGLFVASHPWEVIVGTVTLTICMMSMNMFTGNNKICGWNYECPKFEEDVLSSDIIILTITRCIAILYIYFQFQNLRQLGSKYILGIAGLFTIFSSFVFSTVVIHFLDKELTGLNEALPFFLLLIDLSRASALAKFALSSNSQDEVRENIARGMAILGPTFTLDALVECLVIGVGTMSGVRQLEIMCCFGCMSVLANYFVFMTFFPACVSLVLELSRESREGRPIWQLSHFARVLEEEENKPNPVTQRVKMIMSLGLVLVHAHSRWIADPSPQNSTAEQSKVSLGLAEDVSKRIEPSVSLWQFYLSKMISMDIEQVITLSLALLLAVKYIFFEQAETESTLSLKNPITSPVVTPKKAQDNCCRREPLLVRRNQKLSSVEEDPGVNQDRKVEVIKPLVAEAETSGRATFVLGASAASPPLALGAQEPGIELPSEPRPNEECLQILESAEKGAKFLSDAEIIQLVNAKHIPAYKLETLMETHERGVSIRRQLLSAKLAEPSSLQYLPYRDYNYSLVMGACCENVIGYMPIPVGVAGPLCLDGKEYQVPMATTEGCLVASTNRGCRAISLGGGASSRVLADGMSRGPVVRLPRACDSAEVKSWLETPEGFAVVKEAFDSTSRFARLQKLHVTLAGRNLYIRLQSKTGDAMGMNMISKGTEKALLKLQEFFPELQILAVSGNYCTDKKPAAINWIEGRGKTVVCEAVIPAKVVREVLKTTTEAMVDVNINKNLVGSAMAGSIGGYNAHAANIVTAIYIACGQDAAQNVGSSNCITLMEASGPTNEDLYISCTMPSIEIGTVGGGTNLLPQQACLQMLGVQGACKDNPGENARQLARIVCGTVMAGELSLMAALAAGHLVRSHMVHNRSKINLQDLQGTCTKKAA
Description: Inhibitory activity against partially purified rat liver HMG-CoA reductase in vitro; 0.07-0.27.

The test system of assay [2] is HepG2. Description: Tested for ability to inhibit incorporation of [14C]acetate into cholesterol in cultured human hepatoma (HEP-G2) cells; 0.56-2.2. The format is functional, cell-based.
In assay [3] the target is T1, 3-hydroxy-3-methylglutaryl-coenzyme A reductase. Description: Inhibitory activity against partially purified rat liver HMG-CoA reductase in vitro; 0.12-0.21.
Assay [4] concerns HepG2. Description: Tested for ability to inhibit incorporation of [14C]acetate into cholesterol in cultured human hepatoma (HEP-G2) cells; 0.31-2.4. The format is functional, cell-based.
Assay [5] addresses T1, 3-hydroxy-3-methylglutaryl-coenzyme A reductase. Description: Inhibitory activity against partially purified rat liver HMG-CoA reductase in vitro; 2.1-54.
Assay [6] has the same target. Description: Inhibitory activity against partially purified rat liver HMG-CoA reductase in vitro; 0.41-0.73.
Assay [7] deals with HepG2. Description: Tested for ability to inhibit incorporation of [14C]acetate into cholesterol in cultured human hepatoma (HEP-G2) cells; 1.3-2.3. In kind it is functional, cell-based.
The test system of assay [8] is HepG2. Description: Tested for ability to inhibit incorporation of [14C]acetate into cholesterol in cultured human hepatoma (HEP-G2) cells; 0.15-0.33. In kind it is functional, cell-based.
The target of assay [9] is T1, 3-hydroxy-3-methylglutaryl-coenzyme A reductase. Description: Inhibitory activity against partially purified rat liver HMG-CoA reductase in vitro; 0.0040-0.053.
The target is the same in assay [10]. Description: Inhibitory activity against partially purified rat liver HMG-CoA reductase in vitro; 0.16-0.24.
Assay [11] concerns HepG2. Description: Tested for ability to inhibit incorporation of [14C]acetate into cholesterol in cultured human hepatoma (HEP-G2) cells; 0.0071-23. In kind it is functional, cell-based.
For assay [12], the target named is T1, 3-hydroxy-3-methylglutaryl-coenzyme A reductase. Description: Inhibitory activity against partially purified rat liver HMG-CoA reductase in vitro; 0.0015-0.0049.
Assay [13] concerns HepG2. Description: Tested for ability to inhibit incorporation of [14C]acetate into cholesterol in cultured human hepatoma (HEP-G2) cells; 0.013-0.81. The format is functional, cell-based.
For assay [14], the target named is T1, 3-hydroxy-3-methylglutaryl-coenzyme A reductase. Description: Inhibitory activity against partially purified rat liver HMG-CoA reductase in vitro; 0.027-0.046.
The test system of assay [15] is HepG2. Description: Tested for ability to inhibit incorporation of [14C]acetate into cholesterol in cultured human hepatoma (HEP-G2) cells; 0.44-3.0. In kind it is functional, cell-based.
The target in assay [16] is T1, 3-hydroxy-3-methylglutaryl-coenzyme A reductase. Description: Inhibitory activity against partially purified rat liver HMG-CoA reductase in vitro; 2.6-4.8.
The target is the same in assay [17]. Description: Inhibitory activity against partially purified rat liver HMG-CoA reductase in vitro; 1.2-3.3.
The test system of assay [18] is HepG2. Description: Tested for ability to inhibit incorporation of [14C]acetate into cholesterol in cultured human hepatoma (HEP-G2) cells; 0.046-0.17. The format is functional, cell-based.
For assay [19], the system named is HepG2. Description: Tested for ability to inhibit incorporation of [14C]acetate into cholesterol in cultured human hepatoma (HEP-G2) cells; 0.051-0.12. The format is functional, cell-based.
Assay [20] deals with T1, 3-hydroxy-3-methylglutaryl-coenzyme A reductase. Description: Inhibitory activity against partially purified rat liver HMG-CoA reductase in vitro; 0.021-0.036.
Assay [21] has the same target. Description: Inhibitory activity against partially purified rat liver HMG-CoA reductase in vitro; 0.038-0.18.
In assay [22] the test system is HepG2. Description: Tested for ability to inhibit incorporation of [14C]acetate into cholesterol in cultured human hepatoma (HEP-G2) cells; 0.70-1.4. The format is functional, cell-based.
Assay [23] relates to HepG2. Description: Tested for ability to inhibit incorporation of [14C]acetate into cholesterol in cultured human hepatoma (HEP-G2) cells; 0.019-0.14. In kind it is functional, cell-based.
The target in assay [24] is T1, 3-hydroxy-3-methylglutaryl-coenzyme A reductase. Description: Inhibitory activity against partially purified rat liver HMG-CoA reductase in vitro; 0.0073-0.017.
The target is the same in assay [25]. Description: Inhibitory activity against partially purified rat liver HMG-CoA reductase in vitro; 1.9-5.3.

One may read the IC50 as the concentration needed to halve the response being measured. Read a low IC50 as greater potency. As to `O=C(O)C[C@H](O)C[C@H](O)/C=C/c1c2c(nn1-c1ccc(F)cc1)C(Cc1ccc(Cl)cc1)CCC2` (stereo partly specified), the IC50 in assay [1] came to 0.14 µM; in assay [2], 1.1 µM.

As for `O=C(O)C[C@H](O)C[C@H](O)/C=C/c1c2c(nn1-c1ccc(F)cc1)C(CCCc1ccccc1)CCC2` (stereo partly specified), the IC50 in assay [3] was found to be 0.16 µM; in [4] it was 0.87 µM.

For `O=C(O)C[C@H](O)C[C@H](O)/C=C/c1c2c(nn1-c1ccc(F)cc1)CCC2`, in assay [5], the IC50 was 11 µM.

On to `O=C(O)C[C@H](O)C[C@H](O)/C=C/c1c2c(nn1-c1ccc(F)cc1)C(CCc1ccccc1)CCC2` (stereo partly specified), for which the IC50 amounted to 0.54 µM in assay [6] and 1.7 µM in [7].

In the case of `CC(C)c1ccc(CC2CCCc3c2nn(-c2ccc(F)cc2)c3/C=C/[C@@H](O)C[C@@H](O)CC(=O)O)cc1` (stereo partly specified), the IC50 in [8] turned out to be 0.23 µM; in [9] it was 0.04 µM.

In the case of `O=C(O)C[C@H](O)C[C@H](O)/C=C/c1c2c(nn1-c1ccc(F)cc1)C(Cc1ccc(F)cc1)CCC2` (stereo partly specified), the IC50 in [10] was determined as 0.2 µM; in [11], 0.4 µM.

`O=C(O)C[C@H](O)C[C@H](O)/C=C/c1c2c(nn1-c1ccc(F)cc1)C(Cc1ccc(-c3ccccc3)cc1)CCC2` (stereo partly specified): the IC50 was determined as 0.003 µM in assay [12] and 0.1 µM in assay [13].

For `COc1cccc(CC2CCCc3c2nn(-c2ccc(F)cc2)c3/C=C/[C@@H](O)C[C@@H](O)CC(=O)O)c1` (stereo partly specified), the IC50 in assay [14] was determined as 0.035 µM; in assay [15] it was 1.2 µM.

For the molecule `O=C(O)C[C@H](O)C[C@H](O)/C=C/c1c2c(nn1-c1ccc(F)cc1)CCCCC2`, inhibition in [16] was half-maximal at 3.6 µM (IC50).

With `CCC1CCCc2c1nn(-c1ccc(F)cc1)c2/C=C/[C@@H](O)C[C@@H](O)CC(=O)O` (stereo partly specified), the IC50 in assay [17] amounted to 2 µM.

For the molecule `CC(C)(C)c1ccc(CC2CCCc3c2nn(-c2ccc(F)cc2)c3/C=C/[C@@H](O)C[C@@H](O)CC(=O)O)cc1` (stereo partly specified), the IC50 came out at 0.014 µM in assay [9] and 0.088 µM in [18].

For the molecule `Cc1ccc(CC2CCCc3c2nn(-c2ccc(F)cc2)c3/C=C/[C@@H](O)C[C@@H](O)CC(=O)O)cc1` (stereo partly specified), the IC50 worked out at 0.078 µM in assay [19] and 0.028 µM in assay [20].

On to `O=C(O)C[C@H](O)C[C@H](O)/C=C/c1c2c(nn1-c1ccc(F)cc1)C(C/C=C/c1ccccc1)CCC2` (stereo partly specified), for which the IC50 was 0.082 µM in assay [21] and 1 µM in assay [22].

With `CC[C@H](C)C(=O)O[C@H]1C[C@@H](C)C=C2C=C[C@H](C)[C@H](CC[C@@H]3C[C@@H](O)CC(=O)O3)C21` (stereo partly specified), the figures for the IC50 in assay [23] and in [24] were 0.05 µM and 0.0092 µM, respectively.

Consider `CCCC1CCCc2c1nn(-c1ccc(F)cc1)c2/C=C/[C@@H](O)C[C@@H](O)CC(=O)O` (stereo partly specified), for which the IC50 in assay [25] is 3.4 µM.

The values above are taken from ChEMBL document CHEMBL1126959, “HMG-CoA reductase inhibitors: design, synthesis, and biological activity of tetrahydroindazole-substituted 3,5-dihydroxy-6-heptenoic acid sodium salts” (J Med Chem, 1993).
